Here are results for 26 molecules from US20140243374A1, “Novel Sulfonamides” (The Brigham and Women's Hospital, Inc., priority 2011, published 2014).

Assay [1] has as its target T1, γ-secretase (cleavage of APP, Aβ42) (Homo sapiens, UniProt P49768).
T1 construct: endogenous in cells; host or cells: HEK AP-GL-T16 luciferase reporter cells (tetracycline-induced APP substrate)
Put plainly: Aβ (1-42) cellular assay (Aβ ELISA, HEK AP-GL-T1 6 cells). In kind it is cell-based. The following applies: for IC50: cellular Aβ42 ELISA, 24 h compound treatment; for inhibition at 1 µM: at 1 μM (concentration in brackets). As to the method: Aβ (1-42) Cellular Assay.
The following assay was used to determine the extent to which the compounds of interest inhibit the cleavage of APP in vivo. AβELISA is a commercial fluorometric kit from Biosource (Invitrogen 89344). Luciferase reporter HEK AP-GL-T1 6 cells were plated at 50,000 cells/well in 96 well plates in DMEM media containing 10% tetracyclin free […], 250 μg/mL zeocin, 200 μg/mL hygromycin, and 5 μg/mL blasticidin. Compounds were added 24 h after plating and APP processing is induced simultaneously by addition of tetracycline. Following a 24 h compound treatment, […] of conditioned cell media is collected, mixed with ELISA diluent buffer containing 2 mM AEBSF and 12 mM o-phenanthroline, and immediately frozen at −80° C. For the ELISA, the samples were brought to room temperature and spun at 5000 rpm for 5 min. Samples ([…]) are incubated in the ELISA plate with […] detection antibody on a shaker at room temperature for 3 h. Wells were then washed 4 times with wash buffer and 100 mL of secondary antibody are added and incubated at room temperature for 30 min. Wells were again washed 4 times with wash buffer and 100 mL of fluorescent substrate solution are added. After 30 minutes of incubation, fluorescent signals are determine on a Gemini reader at ex 460 nm and em 560 nm. The amount of Aβ levels in each sample was determined from a standard curve generated by known concentrations of Aβ peptide run simultaneously with the samples.
A general note: An ELISA detects its analyte on a solid surface through an enzyme-linked reagent.

Assay [2] deals with T2, γ-secretase (Notch cleavage activity) (Homo sapiens, UniProt P49768).
T2 construct: endogenous in cells; host or cells: SUP-T1 cells
Put plainly: Cleaved Notch1 Sandwich ELISA (SUP-T1 cell line). The following applies: for IC50: SUP-T1 cells, 16 h; for Notch Elisa/Aβ42: ratio Notch Elisa IC50 to Aβ42 IC50. Type of assay: cell-based. As to the method:
Cleaved Notch1 Sandwich ELISA.
This assay was used to determine if the compounds of interest inhibit the Notch cleavage activity of γ-secretase in SUP-T1 cell line, which endogenously expresses a truncated Notch receptor fragment that is a viable gamma-secretase substrate. The base medium for this cell line is ATCC-formulated RPMI-1640 Medium with fetal bovine serum to a final concentration of 10%. Prepare dilution of SUP-T1 cells in complete growth medium to 1.0×10^6 cells/mL, seed 1.5 mL per well of each cell dilution into a 6-well plate. Collect cells treated with serial diluted compounds in DMSO after 16 h, then using equal amount of protein isolated from samples to measure Notch intracellular cleavage by PathScan® Sandwich ELISA Kit (Cell Signaling Tech 7194S).

Values joined by “and” are separate entries in the source; they are usually repeats but may differ in a detail not shown here. Identical values can stand only once. Counter-ions that a name gives are not always drawn.

Broadly, the IC50 is the concentration that inhibits the measured activity by half. Turning to `O=C(O)c1ccc(CN(C2CCCC(C(F)(F)F)C2)S(=O)(=O)c2ccc(Cl)cc2)cc1` (single isomer, unassigned) [Example 52, 4-((4-Chloro-N-(3-(trifluoromethyl)cyclohexyl)phenylsulfonamido)methyl)benzoic acid], the IC50 in assay [1] was determined as 47.6 nM; in assay [2] it was 1880 nM. The “Notch Elisa/Aβ42” value in assay [2] (listed as 52/1227C) is 40.

Take `O=C(O)c1ccc(CN(C2CCCC(C(F)(F)F)C2)S(=O)(=O)c2ccc(Cl)cc2)cc1` (single isomer, unassigned) [Example 53, 4-((4-Chloro-N-(3-(trifluoromethyl)cyclohexyl)phenylsulfonamido)methyl)benzoic acid]: the IC50 stood at 1190 nM in assay [1] and 34800 nM in assay [2]. Further, in assay [2] (listed as 53/1227D), the “Notch Elisa/Aβ42” value is 29. `COC(=O)c1cc(CN(C2CCOCC2)S(=O)(=O)c2ccc(Cl)cc2)ccc1OC` [Example 7, Methyl 5-((4-chloro-N-(tetrahydro-2H-pyran-4-yl)phenylsulfonamido)methyl)-2-methoxybenzoate]: in assay [1] (read-out: Aβ42 % Inh), the inhibition at 1 µM is 0%. Regarding `COC(=O)c1ccc(CN(C2CCOCC2)S(=O)(=O)c2ccc(Cl)cc2)cc1` [Example 12, Methyl 4-((4-chloro-N-(tetrahydro-2H-pyran-4-yl)phenylsulfonamido)methyl)-benzoate], the inhibition at 1 µM in assay [1] (read-out: Aβ42 % Inh) is 0%. Regarding `CC1CCCCC1N(Cc1ccc(C(=O)NCCN2CCCC2)cc1)S(=O)(=O)c1ccc(Cl)cc1` (centres unmarked) [Example 38, 4-((4-Chloro-N-(2-methylcyclohexyl)phenylsulfonamido)methyl)-N-(2-(pyrrolidin-1-yl)ethyl)benzamide], the concentration for half-maximal inhibition (IC50) was 8.3 nM and 12.8 nM in assay [1]; 667 nM in assay [2]. Further, in assay [2], the “Notch Elisa/Aβ42” value is 64. Consider `CCN(CCN1CCCC1)C(=O)c1ccc(CN(C2CCCCC2C)S(=O)(=O)c2ccc(Cl)cc2)cc1` (centres unmarked) [Example 39, 4-((4-Chloro-N-(2-methylcyclohexyl)phenylsulfonamido)methyl)-N-ethyl-N-(2-(pyrrolidin-1-yl)ethyl)benzamide], for which the IC50 in assay [1] is 40.7 nM and 77.4 nM. Also, in assay [2], the IC50 turned out to be 2260 nM and the “Notch Elisa/Aβ42” value was 38.

As for `CC1CCCCC1N(Cc1ccc(C(=O)NCCN(C)C)cc1)S(=O)(=O)c1ccc(Cl)cc1` (centres unmarked) [Example 41, 4-((4-Chloro-N-(2-methylcyclohexyl)phenylsulfonamido)methyl)-N-(2-(dimethylamino)ethyl)benzamide hydrochloride], the IC50 was 5.8 nM and 10.9 nM in assay [1]; 675 nM and 850 nM in assay [2]. Moreover, the “Notch Elisa/Aβ42” value in assay [2] is 91. The molecule `COC(=O)c1ccc(CN(C2CCCC(C)C2)S(=O)(=O)c2ccc(Cl)cc2)cc1` (centres unmarked) [Example 42, Methyl 4-((4-chloro-N-(3-methylcyclohexyl)phenylsulfonamido)methyl)benzoate] displayed an IC50 in assay [1] of 9.44 nM. Consider `CC1CCCC(N(Cc2ccc(C(=O)O)cc2)S(=O)(=O)c2ccc(Cl)cc2)C1` (centres unmarked) [Example 43, 4-((4-Chloro-N-(3-methylcyclohexyl)phenylsulfonamido)methyl)benzoic acid], for which inhibition in assay [1] was half-maximal at 148 nM (IC50). In assay [2], the IC50 is 2820 nM and 2730 nM; the “Notch Elisa/Aβ42” value was determined as 19. Turning to `CC1CCCCC1N(Cc1ccc(C(=O)O)cc1)S(=O)(=O)c1ccc(Cl)nc1` (centres unmarked) [Example 44, 4-((6-Chloro-N-(2-methylcyclohexyl)pyridine-3-sulfonamido)methyl)benzoic acid], the concentration for half-maximal inhibition (IC50) in assay [1] is 6.4 nM and 20 nM. In addition, in assay [2], the IC50 is 2980 nM and 2730 nM; the “Notch Elisa/Aβ42” value is 220. Turning to `COC(=O)c1ccc(CN(C2CCCC(C(F)(F)F)C2)S(=O)(=O)c2ccc(Cl)cc2)cc1` (centres unmarked) [Example 49, Methyl 4-((4-chloro-N-(3-(trifluoromethyl)cyclohexyl)phenylsulfonamido)methyl)benzoate], the midpoint of inhibition in assay [1], the IC50, lay at 7.3 nM.

`COC(=O)c1ccc(CN(C2CCCCC2F)S(=O)(=O)c2ccc(Cl)cc2)cc1` (centres unmarked) [Example 56, Methyl 4-((4-chloro-N-(2-fluorocyclohexyl)phenylsulfonamido)methyl)benzoate]: in assay [1], half-maximal inhibition (IC50) required 4.05 nM. On to `C[C@H](CO)NC(=O)c1ccc(CN(C2CCCCC2F)S(=O)(=O)c2ccc(Cl)cc2)cc1` (stereo partly drawn) [Example 60, 4-((4-Chloro-N-(2-fluorocyclohexyl)phenylsulfonamido)methyl)-N—((R)-1-hydroxypropan-2-yl)benzamide], for which the IC50 was 4.58 nM and 7 nM in assay [1]; 1550 nM in assay [2]. In addition, the “Notch Elisa/Aβ42” value in assay [2] was 305. Regarding `COC(=O)c1ccc(CN(C2CCCCC2F)S(=O)(=O)c2ccc(Cl)nc2)cc1` (centres unmarked) [Example 61, Methyl 4-((6-chloro-N-(2-fluorocyclohexyl)pyridine-3-sulfonamido)methyl)benzoate], 10.4 nM corresponded to half-maximal inhibition in assay [1] (IC50). Turning to `O=C(O)c1ccc(CN(C2CCCCC2F)S(=O)(=O)c2ccc(Cl)nc2)cc1` (centres unmarked) [Example 62, 4-((6-Chloro-N-(2-fluorocyclohexyl)pyridine-3-sulfonamido)methyl)benzoic acid], the IC50 in assay [1] is 135 nM and 261 nM. In addition, in assay [2], the midpoint of inhibition, the IC50, lay at 5200 nM and the “Notch Elisa/Aβ42” value was 26. For the molecule `O=C(O)c1ccc(CN(C2CCCC(C(F)(F)F)C2)S(=O)(=O)c2ccc(Cl)nc2)cc1` (centres unmarked) [Example 63, 4-((6-Chloro-N-(3-(trifluoromethyl)cyclohexyl)pyridine-3-sulfonamido)methyl)benzoic acid], in assay [1] (read-out: Aβ42 % Inh), the inhibition at 1 µM came out at 87%.

For `COC(=O)c1ccc(CN(C2CCCC(C(F)(F)F)C2)S(=O)(=O)c2ccc(Cl)nc2)cc1` (centres unmarked) [Example 70, Methyl 4-((6-chloro-N-(3-(trifluoromethyl)cyclohexyl)pyridine-3-sulfonamido)methyl)benzoate], 26.8 nM corresponded to half-maximal inhibition in assay [1] (IC50). The same measure, in the same setting: the same measure for `O=C(O)CNC(=O)c1ccc(CN(C2CCCCC2F)S(=O)(=O)c2ccc(Cl)cc2)cc1` (centres unmarked) [Example 79, 2-(4-((4-Chloro-N-(2-fluorocyclohexyl)phenylsulfonamido)methyl)benzamido)acetic acid]: 3620 nM. Consider `CN(C)CCNC(=O)c1ccc(CN(C2CCCCC2F)S(=O)(=O)c2ccc(Cl)nc2)cc1` (centres unmarked) [Example 80, 4-((6-Chloro-N-(2-fluorocyclohexyl)pyridine-3-sulfonamido)methyl)-N-(2-(dimethylamino)ethyl)benzamide hydrochloride], for which the inhibition at 1 µM in assay [1] (read-out: Aβ42 % Inh) came to 65%.

Consider `O=C(O)c1ccc(CN(C2CCC(F)CC2)S(=O)(=O)c2ccc(Cl)cc2)cc1` (centres unmarked) [Example 82, 4-((4-Chloro-N-(4-fluorocyclohexyl)phenylsulfonamido)methyl)benzoic acid], for which the inhibition at 30 µM in assay [1] (at 30 μM (concentration in brackets), read-out: Aβ42 % Inh) is 0%.

Molecule `O=C(O)c1ccc(CN([C@@H]2CCCC[C@H]2F)S(=O)(=O)c2ccc(Cl)cc2)cc1` [Example 84, 4-((4-Chloro-N-((1R,2R)-2-fluorocyclohexyl)phenylsulfonamido)methyl)benzoic acid] showed an IC50 in assay [1] of 141 nM.

On to `COC[C@H](C)NC(=O)c1ccc(CN(C2CCCCC2F)S(=O)(=O)c2ccc(Cl)cc2)cc1` (stereo partly drawn) [Example 86, 4-((4-Chloro-N-(2-fluorocyclohexyl)phenylsulfonamido)methyl)-N—((S)-1-methoxypropan-2-yl)benzamide], for which, in assay [1], it took 103 nM to reach half-maximal inhibition (IC50). This IC50 and that of the molecule before are within 1.5-fold of each other.

Take `O=C(NCCN1CCCC1)c1ccc(CN(C2CCCCC2F)S(=O)(=O)c2ccc(Cl)cc2)cc1` (centres unmarked) [Example 87, 4-((4-Chloro-N-(2-fluorocyclohexyl)phenylsulfonamido)methyl)-N-(2-(pyrrolidin-1-yl)ethyl)benzamide]: in assay [1], inhibition was half-maximal at 6.91 nM (IC50). For `COC[C@@H](C)NC(=O)c1ccc(CN(C2CCCCC2F)S(=O)(=O)c2ccc(Cl)cc2)cc1` (stereo partly drawn) [Example 88, 4-((4-Chloro-N-(2-fluorocyclohexyl)phenylsulfonamido)methyl)-N-((R)-1-methoxypropan-2-yl)benzamide], in assay [1], the IC50 is 7.31 nM. `C[C@@H](CO)NC(=O)c1ccc(CN(C2CCCCC2F)S(=O)(=O)c2ccc(Cl)cc2)cc1` (stereo partly drawn) [Example 89, 4-((4-Chloro-N-(2-fluorocyclohexyl)phenylsulfonamido)methyl)-N—((S)-1-hydroxypropan-2-yl)benzamide]: the half-inhibitory concentration (IC50) in assay [1] is 35.4 nM.

In assay [1], “Methyl 3-(4-((4-chloro-N-(2-methylcyclohexyl)phenylsulfonamido)methyl)benzamido)propanoate [Example 35]” had an IC50 of 29.7 nM.
